Where “and” joins values, the source holds several entries; their conditions need not be identical. Equal entries are not always repeated. Toxic doses and inconclusive results are not listed. Rule as the data show it: active = T/C of 150% or more; inactive = T/C below 125%.
Tested on: L1210 leukemia ip in BDF1 mice, survival T/C
Assay: NCI In Vivo Anticancer Drug Screen. Data for tumor model L1210 Leukemia (intraperitoneal) in B6D2F1 (BDF1) mice
Details: endpoint: mean survival time, higher = longer survival
Summary of the method: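 Value reflects the ratio of survival in compound-treated mice to survival in vehicle-treated controls, with both groups carrying the same transplanted tumor.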

[1] = dose: 50.0 mg/kg/injection, schedule: Q01DX009 (ip), vehicle: saline
[2] = dose: 100.0 mg/kg/injection, schedule: Q01DX009 (ip), vehicle: saline
[3] = dose: 100.0 mg/kg/injection, schedule: Q04DX003 (ip), vehicle: saline with Tween-80
[4] = dose: 400.0 mg/kg/injection, schedule: Q04DX003 (ip), vehicle: saline with Tween-80
[5] = dose: 25.0 mg/kg/injection, schedule: Q04DX002 (ip), vehicle: saline with Tween-80
[6] = dose: 50.0 mg/kg/injection, schedule: Q04DX002 (ip), vehicle: saline with Tween-80
[7] = dose: 100.0 mg/kg/injection, schedule: Q01DX001 (ip), vehicle: saline
[8] = dose: 200.0 mg/kg/injection, schedule: Q01DX001 (ip), vehicle: saline

Measured: T/C

CN=C(N)Nc1ccccc1
inactive: dose: 50.0 mg/kg/injection, schedule: Q01DX009 (ip), vehicle: saline with Tween-80 97 % of control | [1] 101 % of control | dose: 100.0 mg/kg/injection, schedule: Q01DX009 (ip), vehicle: saline with Tween-80 90 % of control | [2] 101 % of control | dose: 200.0 mg/kg/injection, schedule: Q01DX009 (ip), vehicle: saline with Tween-80 97 % of control | dose: 200.0 mg/kg/injection, schedule: Q01DX009 (ip), vehicle: saline 101 % of control

CCCCCCCCCOCC(O)COc1ccccc1[N+](=O)[O-] (stereo not given)
inactive: dose: 100.0 mg/kg/injection, schedule: Q04DX003 (ip), vehicle: saline sonified 113 % of control | dose: 200.0 mg/kg/injection, schedule: Q04DX003 (ip), vehicle: saline sonified 95 % of control | dose: 400.0 mg/kg/injection, schedule: Q04DX003 (ip), vehicle: saline sonified 98 % of control

CCCCCCCCCCCCCCCCS(=O)(=O)N/N=C(/c1cccc(N)c1)N1CCCCC1
inactive: dose: 50.0 mg/kg/injection, schedule: Q04DX003 (ip), vehicle: saline with Tween-80 87 % of control | [3] 90 % of control | [4] 88 % of control

CC(CNC1=NCCN1)c1cccc2ccccc12 (stereo not given)
inactive: dose: 50.0 mg/kg/injection, schedule: Q01DX009 (ip), vehicle: Klucel (hydroxypropylcellulose) (HPC) 111 % of control | dose: 100.0 mg/kg/injection, schedule: Q01DX009 (ip), vehicle: Klucel (hydroxypropylcellulose) (HPC) 103 % of control | dose: 200.0 mg/kg/injection, schedule: Q01DX009 (ip), vehicle: Klucel (hydroxypropylcellulose) (HPC) 108 % of control

Cc1cccc(N2CCNCC2)c1
inactive: dose: 6.25 mg/kg/injection, schedule: Q04DX003 (ip), vehicle: saline 93 % of control | dose: 12.5 mg/kg/injection, schedule: Q04DX003 (ip), vehicle: saline 96 % of control | [5] 101 % of control | dose: 25.0 mg/kg/injection, schedule: Q04DX003 (ip), vehicle: saline 102 % of control | [6] 92 % of control

c1ccc(N2CCNCC2)cc1 (tested in a mixture with another compound)
inactive: dose: 5.0 mg/kg/injection, schedule: Q01DX001 (ip), vehicle: saline 105 % of control and 101 % of control and 97 % of control | dose: 10.0 mg/kg/injection, schedule: Q01DX001 (ip), vehicle: saline 105 % of control and 97 % of control | dose: 20.0 mg/kg/injection, schedule: Q01DX001 (ip), vehicle: saline 105 % of control and 94 % of control and 95 % of control | dose: 40.0 mg/kg/injection, schedule: Q01DX001 (ip), vehicle: saline 102 % of control and 100 % of control | dose: 80.0 mg/kg/injection, schedule: Q01DX001 (ip), vehicle: saline 100 % of control | [7] 98 % of control | [8] 96 % of control

Cc1ccc(N=Cc2cc(I)cc(I)c2O)cc1.Cc1ccc(N=Cc2cc(I)cc(I)c2O)cc1.[Co]
inactive: [3] 92 % of control | dose: 200.0 mg/kg/injection, schedule: Q04DX003 (ip), vehicle: saline with Tween-80 102 % of control and 91 % of control | [4] 96 % of control and 89 % of control

O=C(OCCN(CCOC(=O)c1ccc([N+](=O)[O-])cc1)c1c[nH]c(=O)[nH]c1=O)c1ccc([N+](=O)[O-])cc1
inactive: dose: 50.0 mg/kg/injection, schedule: Q01DX001 (ip), vehicle: saline 93 % of control | [7] 93 % of control | [8] 93 % of control | dose: 400.0 mg/kg/injection, schedule: Q01DX001 (ip), vehicle: saline 110 % of control

CC(=O)/C(C)=C/C=O
inactive: dose: 0.78 mg/kg/injection, schedule: Q01DX009 (ip), vehicle: water 100 % of control | dose: 1.56 mg/kg/injection, schedule: Q01DX009 (ip), vehicle: water 102 % of control | dose: 3.12 mg/kg/injection, schedule: Q01DX009 (ip), vehicle: water 94 % of control | dose: 3.12 mg/kg/injection, schedule: Q04DX003 (ip), vehicle: water 95 % of control | dose: 6.25 mg/kg/injection, schedule: Q01DX009 (ip), vehicle: water 102 % of control | dose: 6.25 mg/kg/injection, schedule: Q04DX003 (ip), vehicle: water 101 % of control | dose: 12.5 mg/kg/injection, schedule: Q01DX009 (ip), vehicle: water 107 % of control | dose: 12.5 mg/kg/injection, schedule: Q04DX003 (ip), vehicle: water 100 % of control and 101 % of control

[O-]c1on[n+](-c2ccccc2)c1-c1ccccc1
inactive: dose: 75.0 mg/kg/injection, schedule: Q01DX009 (ip), vehicle: Klucel (hydroxypropylcellulose) (HPC) 93 % of control | dose: 75.0 mg/kg/injection, schedule: Q04DX003 (ip), vehicle: Klucel (hydroxypropylcellulose) (HPC) 109 % of control | dose: 150.0 mg/kg/injection, schedule: Q01DX009 (ip), vehicle: Klucel (hydroxypropylcellulose) (HPC) 97 % of control | dose: 150.0 mg/kg/injection, schedule: Q04DX003 (ip), vehicle: Klucel (hydroxypropylcellulose) (HPC) 105 % of control | dose: 300.0 mg/kg/injection, schedule: Q01DX009 (ip), vehicle: Klucel (hydroxypropylcellulose) (HPC) 95 % of control | dose: 300.0 mg/kg/injection, schedule: Q04DX003 (ip), vehicle: Klucel (hydroxypropylcellulose) (HPC) 107 % of control

CN(C)CCN(C(=O)c1ccc(N)cc1)c1ccccc1
inactive: [1] 91 % of control | [2] 109 % of control

C1=C(c2ccccc2)C(c2ccccc2)c2ccccc21 (stereo not given)
inactive: dose: 12.5 mg/kg/injection, schedule: Q04DX002 (ip), vehicle: saline with Tween-80 90 % of control | [5] 98 % of control | [6] 90 % of control | [4] 90 % of control

Brc1ccc2c(ccn2Cc2ccccc2)c1
inactive: dose: 100.0 mg/kg/injection, schedule: Q04DX003 (sc), vehicle: olive oil, sesame oil, peanut oil 109 % of control | dose: 200.0 mg/kg/injection, schedule: Q04DX003 (sc), vehicle: olive oil, sesame oil, peanut oil 106 % of control | dose: 400.0 mg/kg/injection, schedule: Q04DX003 (sc), vehicle: olive oil, sesame oil, peanut oil 104 % of control

O=Cc1ccc2cc(Cl)ccc2n1
inactive: dose: 100.0 mg/kg/injection, schedule: Q01DX001 (ip), vehicle: other 93 % of control | dose: 200.0 mg/kg/injection, schedule: Q01DX001 (ip), vehicle: other 110 % of control | dose: 400.0 mg/kg/injection, schedule: Q01DX001 (ip), vehicle: other 106 % of control

Reference: PubChem BioAssay AID248 (DTP/NCI, 2004)
